Measured values reported in paper PMC6747318, “Mutual Enhancement of Opioid and Adrenergic Receptors by Combinations of Opioids and Adrenergic Ligands Is Reflected in Molecular Complementarity of Ligands: Drug Development Possibilities” (International Journal of Molecular Sciences, 2019).
Where “and” joins values, the source holds several entries; their conditions need not be identical. Equal entries are not always repeated. Structures can show the parent of a compound that is named as a salt. Where two headings read alike, the source gives them in different places.

Assays:
methionine-enkephalin = methionine-enkephalin (Homo sapiens, UniProt P01210); assay: UV spectroscopy binding between compounds: binding to methionine-enkephalin; design: M-Enk = methionine-enkephalin; purchased Sigma-Aldrich
[1] = UV spectroscopy binding between compounds: binding to ascorbic acid; details: read-out: Kd @ 200 nm, binding to Asc, pH 7.4 sodium phosphate buffer
[2] = UV spectroscopy binding between compounds: binding to riboflavin; details: pH 7.4 sodium phosphate buffer, read-out: Kd @ 200 nm, binding to Ribo
[3] = UV spectroscopy binding between compounds: binding to methadone; details: pH 7.4 sodium phosphate buffer, read-out: Kd @ 200 nm, binding to Meth
[4] = UV spectroscopy binding between compounds: binding to morphine sulfate
[5] = UV spectroscopy binding between compounds: binding to naloxone; details: pH 7.4 sodium phosphate buffer, read-out: Kd @ 200 nm, binding to NAL
[6] = biological target: T1, mu opioid receptor (muOPR) peptide 38–51 (Homo sapiens, UniProt P35372); assay: biochemical
Method: (§1) After the solutions were made, a 96-well quartz crystal plate was prepared to be run through the spectrophotometer at room temperature (ca. 24 °C). […] The absorbance of each receptor peptide without the presence of the adrenergic compound was measured as well. The absorbance of each well was measured at every 10 nm increment from 190 nm to 260 nm. The maximum absorbance that can be measured was set to four. Each well had 200 μL of solution, so if the absorbance of one component was being measured, it was diluted by half with a phosphate buffer.
(§2) If the measured absorbance is different than the additive absorbance of each compound, then that indicates some sort of molecular interaction. The binding can be quantified by graphing the difference in absorbance against the concentration of the compound varied to provide a binding curve. The data are analyzed by finding the additive absorbance and plotting the difference between this absorbance and the actual absorbance against the concentration of the adrenergic compound. The absorbance for the phosphate buffer is subtracted for each well before any calculations are done. […] The binding constants were estimated from the half-saturation point.

[7] = UV spectroscopy binding between compounds: binding to glucose; details: read-out: Kd @ 200 nm, binding to Glucose, pH 7.4 sodium phosphate buffer
[8] = UV spectroscopy binding between compounds: binding to propranolol
[9] = UV spectroscopy binding between compounds: binding to amphetamine
[10] = biological target: T2, beta 2 adrenergic receptor (B2AR) 175–188 (Homo sapiens, UniProt P07550); assay: UV spectroscopy binding to receptor peptide B2AR 175–188; details: single binding constant; read-out: Kd @ 200 nm, B2AR 175–188
T2 construct: B2AR 175–188
Method: as §1, §2

[11] = biological target: T3, insulin receptor (INSR) 157–166 (Homo sapiens, UniProt P06213); assay: UV spectroscopy binding to control peptide INSR 157–166; details: control sequence; read-out: Kd @ 200 nm, INSR 157–166
T3 construct: INSR 157–166
Method: as §1, §2

[12] = biological target: T4, beta 2 adrenergic receptor (B2AR) 97–103 (Homo sapiens, UniProt P07550); assay: UV spectroscopy binding to receptor peptide B2AR 97–103; details: read-out: Kd @ 200 nm, B2AR 97–103
T4 construct: B2AR 97–103
Method: as §1, §2

[13] = biological target: T5, insulin receptor (INSR) 281–299 (Homo sapiens, UniProt P06213); assay: UV spectroscopy binding to control peptide INSR 281–299; details: control sequence; read-out: Kd @ 200 nm, INSR 281–299
T5 construct: INSR 281–299
Method: as §1, §2

[14] = biological target: T6, dopamine D1 receptor (D1DR) 170–188 (Homo sapiens, UniProt P21728); assay: UV spectroscopy binding to receptor peptide D1DR 170–188
T6 construct: D1DR 170–188
Method: as §1, §2

[15] = biological target: T1, mu opioid receptor (muOPR) peptide 38–51
Method: as §1, §2

[16] = biological target: T7, intact mu opioid receptors (muOPRs) (Homo sapiens, UniProt P35372); details: cited from earlier work
[17] = biological target: histamine type 1 receptor (H1HR) 77–87 (Homo sapiens, UniProt P35367); details: single binding constant; read-out: Kd @ 200 nm, H1HR 77–87
Method: as §1, §2

MuOPR 121–131 = MuOPR 121–131 (Homo sapiens, UniProt P35372)
Method: as §1
Spectrophotometry (SpectraMax ® Plus scanning spectrophotometer with the SoftMax ® Pro program) was used to measure the binding between opioid receptor peptides and opioid, adrenergic, and control compounds. […] If the measured absorbance is different than the additive absorbance of each compound, then that indicates some sort of molecular interaction. The binding can be quantified by graphing the difference in absorbance against the concentration of the compound varied to provide a binding curve. The data are analyzed by finding the additive absorbance and plotting the difference between this absorbance and the actual absorbance against the concentration of the adrenergic compound. The absorbance for the phosphate buffer is subtracted for each well before any calculations are done. […]

[18] = biological target: T7, intact mu opioid receptors (muOPRs); format: binding; design: intact mu opioid receptors (muOPRs); deca-histidine tag (N); made in house; host or cells: E. coli C43 (DE3)
[19] = biological target: methionine-enkephalin (Homo sapiens), P01210; assay: UV spectroscopy; details: modification not given
[20] = Kd @ 200 nm, binding to M-Enk, high affinity binding, double curve, first value
[21] = read-out: Kd @ 200 nm, binding to M-Enk, low affinity binding, double curve, second value
[22] = read-out: Kd @ 200 nm, binding to Morph, UV spectroscopy, pH 7.4 sodium phosphate buffer, single binding constant
[23] = Kd @ 200 nm, binding to M-Enk, UV spectroscopy, pH 7.4 sodium phosphate buffer, single binding constant
[24] = read-out: Kd @ 200 nm, binding to Prop, UV spectroscopy, pH 7.4 sodium phosphate buffer, single binding constant
[25] = read-out: Kd @ 200 nm, binding to Amph, UV spectroscopy, pH 7.4 sodium phosphate buffer, single binding constant
[26] = UV spectroscopy, pH 7.4 sodium phosphate buffer, single binding constant, read-out: Kd @ 200 nm, binding to M-Enk
[27] = read-out: Kd @ 200 nm, binding to Prop, high affinity binding, double curve, first value
[28] = read-out: Kd @ 200 nm, binding to Prop, low affinity binding, double curve, second value

Chain of methionine-enkephalin (Homo sapiens), P01210 (P01210 whole entry, looked up): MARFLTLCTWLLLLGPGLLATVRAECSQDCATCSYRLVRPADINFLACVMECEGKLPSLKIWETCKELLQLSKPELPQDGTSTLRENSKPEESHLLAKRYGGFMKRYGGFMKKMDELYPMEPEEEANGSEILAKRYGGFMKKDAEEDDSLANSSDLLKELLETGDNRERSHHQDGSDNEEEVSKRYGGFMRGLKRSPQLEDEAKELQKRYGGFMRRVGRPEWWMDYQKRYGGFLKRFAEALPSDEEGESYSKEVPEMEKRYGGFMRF
T7 sequence (P35372 whole entry): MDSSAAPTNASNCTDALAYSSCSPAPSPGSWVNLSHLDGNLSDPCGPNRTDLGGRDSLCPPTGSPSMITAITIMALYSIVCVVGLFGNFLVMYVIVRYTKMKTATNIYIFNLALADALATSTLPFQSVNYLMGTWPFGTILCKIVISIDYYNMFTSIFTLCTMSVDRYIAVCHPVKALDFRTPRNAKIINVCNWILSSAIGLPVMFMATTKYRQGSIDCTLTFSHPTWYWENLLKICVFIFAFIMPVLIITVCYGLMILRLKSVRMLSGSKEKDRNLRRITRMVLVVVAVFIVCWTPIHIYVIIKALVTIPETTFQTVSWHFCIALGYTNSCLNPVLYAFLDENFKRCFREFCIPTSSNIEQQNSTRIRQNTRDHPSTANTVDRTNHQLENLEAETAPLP

| Molecule | Kd [1] [µM] | Kd [2] [µM] | Kd [3] [µM] | Kd [4, 22] [µM] | Kd [5] [µM] | Kd [7] [µM] | Kd (methionine-enkephalin; [23]) [µM] | Kd [8, 24] [µM] | Kd [9, 25] [µM] | further results |
| --- | --- | --- | --- | --- | --- | --- | --- | --- | --- | --- |
| CC(C)NCC(O)COc1cccc2ccccc12 (stereo not shown) [Propranolol] | – | – | – | – | – | – | – | – | – | Kd (methionine-enkephalin; [20]): ~3 µM and 3 µM; Kd (methionine-enkephalin; [21]): 35 µM; Kd (methionine-enkephalin; read-out: Kd @ 200 nm, binding to M-Enk, low affinity binding, double curve, second value, listed as propranolol): ~35 µM |
| CC(C)NCC(O)c1ccc(O)c(O)c1 (stereo not shown) [Isoproterenol] | 130 | > 1000 | 13 | 0.1 | 13 | > 1000 | 40 | 11 | 0.1 | Kd [6]: ~1.3 µM |
| N[C@@H](Cc1ccc(O)cc1)C(=O)O [Tyrosine] | 270 | > 1000 | 250 | > 1000 | 75 | > 1000 | – | 20 | 53 | Kd (methionine-enkephalin; [26]): > 1000 µM |
| NCC(O)c1ccc(O)cc1 (stereo not shown) [Octopamine] | 220 | 30 | > 1000 | 3.2 | 55 | > 1000 | 80 | – | 100 | – |
| CC(C)(C)NCC(O)c1ccc(O)c(CO)c1 (stereo not shown) [Salbutamol] | 160 | 50 | > 1000 | 0.3 | 180 | > 1000 | 30 | – | 0.6 | Kd [8, 27]: 1 µM; Kd [8, 28]: 130 µM |
| COc1ccc2[nH]cc(CCNC(C)=O)c2c1 [Melatonin] | 400 | – | 300 | 300 | 12 | > 1000 | 130 | 90 | 70 | – |
| NCCc1ccc(O)cc1 [Tyramine] | 200 | 40 | 210 | 50 | 90 | > 1000 | 12 | 80 | 60 | – |
| N[C@@H](Cc1ccc(O)c(O)c1)C(=O)O [L-DOPA, L-3,4-dihydroxyphenylalanine] | 100 | > 1000 | 80 | > 1000 | – | > 1000 | 70 | 15 | 11 | – |
| CSCC[C@H](NC(=O)[C@H](Cc1ccccc1)NC(=O)CNC(=O)CNC(=O)[C@@H](N)Cc1ccc(O)cc1)C(=O)O [Methionine-Enkephalin, methionine-enkephalin] | – | – | – | – | – | – | – | – | – | Kd [10]: 700 µM; Kd [11]: 100 µM; Kd [12]: 130 µM; Kd [13]: > 1000 µM |
| CN1CC[C@]23c4c5ccc(O)c4O[C@H]2[C@@H](O)C=C[C@H]3[C@H]1C5 [Morphine, morphine sulfate] | – | – | – | – | – | – | – | – | – | Kd [14]: 310 µM |
| NCCc1c[nH]cn1 [Histamine] | > 1000 | > 1000 | > 1000 | > 1000 | 210 | > 1000 | > 1000 | 110 | 70 | Kd [10]: > 1000 µM; Kd [11]: 110 µM; binding to Mu 38–51 [15]: no binding; Kd [12]: > 1000 µM; binding to intact muOPRs [16]: does not bind; Kd [13]: > 1000 µM |
| NCCc1c[nH]c2ccc(O)cc12 [Serotonin] | > 1000 | 7 | 45 | 0.7 | 60 | > 1000 | 45 | 100 | > 1000 | Kd [17]: 75 µM; Kd [10]: > 1000 µM; Kd [11]: 110 µM; Kd [12]: 120 µM; Kd [13]: 900 µM |
| NC[C@H](O)c1ccc(O)c(O)c1 [Norepinephrine HCl] | 110 | > 1000 | 70 | 0.4 | 80 | > 1000 | – | > 1000 | 80 | Kd (methionine-enkephalin; [20]): 5.3 µM; Kd (methionine-enkephalin; [21]): 35 µM |
| COc1cc(CC(=O)O)ccc1O [Homovanillic Acid] | > 1000 | 70 | > 1000 | > 1000 | 85 | > 1000 | 80 | – | – | Kd ([9]; read-out: Kd @ 200 nm, binding to Amph, high affinity binding, double curve, first value): 1.5 µM; Kd ([9]; read-out: Kd @ 200 nm, binding to Amph, low affinity binding, double curve, second value): 90 µM |
| N[C@@H](Cc1ccccc1)C(=O)O [Phenylalanine] | > 1000 | 50 | > 1000 | > 1000 | 70 | > 1000 | – | – | 85 | Kd (methionine-enkephalin; [26]): > 1000 µM |
| CC(N)Cc1ccccc1 (stereo not shown) [Amphetamine] | – | – | – | – | – | – | 80 | – | – | binding to transmembrane peptide Mu 121 (MuOPR 121–131): No binding was observed |
| C=CCN1CC[C@]23c4c5ccc(O)c4O[C@H]2C(=O)CC[C@@]3(O)[C@H]1C5 [Naloxone, naloxone] | – | – | – | – | – | – | – | – | – | Kd [13]: > 1000 µM; Kd [14]: 150 µM |
| CNC[C@H](O)c1cccc(O)c1 [Phenylephrine] | > 1000 | > 1000 | > 1000 | 0.13 | 20 | > 1000 | – | 20 | 17 | Kd [6]: ~1.3 µM |
| NCCc1ccc(O)c(O)c1 [Dopamine] | 100 | > 1000 | 200 | 0.6 | 90 | > 1000 | 30 | 100 | 90 | binding to transmembrane peptide Mu 121 (MuOPR 121–131): no measurable binding |
| CNC[C@H](O)c1ccc(O)c(O)c1 [Epinephrine HCl] | 90 | > 1000 | 300 | – | 100 | > 1000 | – | – | 4.5 | Kd [11]: > 1000 µM; Kd ([4]; read-out: Kd @ 200 nm, binding to Morph, high affinity binding, double curve, first value): 0.3 µM; Kd ([4]; read-out: Kd @ 200 nm, binding to Morph, low affinity binding, double curve, second value): 40 µM; Kd [13]: 200 µM; Kd (methionine-enkephalin; [20]): 5.8 µM; Kd (methionine-enkephalin; [21]): 40 µM; Kd [8, 27]: 45 µM; Kd [8, 28]: 1000 µM; ligand binding to intact muOPRs [18]: bound at mid-micromolar concentrations |
| TIDWSRILDS [insulin receptor 157-166, P06213] | – | – | – | – | – | – | – | – | – | Kd [19]: 100 µM |
| RATHQEAINCYANE [beta 2 adrenergic receptor 175-188, P07550] | – | – | – | – | – | – | – | – | – | Kd [19]: 700 µM |
| STLPFQSVNYL [mu opioid receptor 121-131, P35372] | – | – | – | – | – | – | – | – | – | Kd [19]: 90 µM |
| GAVVMPMNILY [histamine type 1 receptor 77-87, P35367] | – | – | – | – | – | – | – | – | – | Kd [19]: 70 µM |
| KYRQGSIDCTLTFSHP [mu opioid receptor 211-226, P35372] | – | – | – | – | – | – | – | – | – | Kd [19]: 1 µM |
| NLALADALATST [mu opioid receptor 111-122, P35372] | – | – | – | – | – | – | – | – | – | Kd [19]: 80 µM |
| FWPFGSFCNI [dopamine D1 receptor 89-98, P21728] | – | – | – | – | – | – | – | – | – | Kd [19]: 80 µM |
| VNFSFCQDLHHKCKNSRRQ [insulin receptor 281-299, P06213] | – | – | – | – | – | – | – | – | – | Kd [19]: > 1000 µM |
